Data as given in patent publication US7495001B2, “Benzannelated derivatives, their manufacture and use as pharmaceutical agents” (Hoffmann-La Roche Inc., priority 2003, dated 2009).

Experiments:
[1] = target: T1, PPARδ (Homo sapiens, UniProt Q03181); experiment: PPARδ radioligand binding assay (scintillation proximity, GST-PPARδ-LBD); conditions: GST-PPARδ-LBD fusion protein, SPA radioligand binding
T1 construct: PPARδ (aa 139 to 442); made in house; host or cells: E. coli BL21 (pLysS)
T1 sequence (Q03181 139-441 limits assumed): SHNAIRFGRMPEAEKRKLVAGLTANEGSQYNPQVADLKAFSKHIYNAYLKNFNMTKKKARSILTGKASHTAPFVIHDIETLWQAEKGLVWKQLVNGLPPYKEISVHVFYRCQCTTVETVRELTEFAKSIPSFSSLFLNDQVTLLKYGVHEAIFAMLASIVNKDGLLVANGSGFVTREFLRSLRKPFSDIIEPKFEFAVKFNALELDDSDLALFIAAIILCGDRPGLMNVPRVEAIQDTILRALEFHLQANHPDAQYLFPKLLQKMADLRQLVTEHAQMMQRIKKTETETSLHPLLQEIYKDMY
Excerpt: (§1) Background information on the performed assays can be found in: Nichols J S et al. “Development of a scintillation proximity assay for peroxisome proliferator-activated receptor gamma ligand binding domain”, (1998) Anal. Biochem. 257:112-119.
(§2) Full-length cDNA clones for humans PPARδ and PPARα and mouse PPARγ were obtained by RT-PCR from human adipose and mouse liver cRNA, respectively, cloned into plasmid vectors and verified by DNA sequencing. Bacterial and mammalian expression vectors were constructed to produce glutathione-s-transferase (GST) and Gal4 DNA binding domain proteins fused to the ligand binding domains (LBD) of PPARδ (aa 139 to 442), PPARγ (aa 174 to 476) and PPARα (aa 167 to 469). To accomplish this, the portions of the cloned sequences encoding the LBDs were amplified from the full-length clones by PCR and then subcloned into the plasmid vectors. Final clones were verified by DNA sequence analysis.
(§3) Induction, expression, and purification of GST-LBD fusion proteins were performed in E. coli strain BL21 (pLysS) cells by standard methods (Ref: Current Protocols in Molecular Biology, Wiley Press, edited by Ausubel et al.).
(§4) Radioligand Binding Assay
PPARδ receptor binding was assayed in HNM10 (50 mM Hepes, pH 7.4, 10 mM NaCl, 5 mM MgCl2, 0.15 mg/ml fatty acid-free BSA and 15 mM DTT). For each 96 well reaction a 500 ng equivalent of GST-PPARδ-LBD fusion protein and radioligand, e.g. 20000 dpm {2-methyl-4-[4-methyl-2-(4-trifluoromethyl-phenyl)-thiazol-5-yl-ditritiomethylsulfanyl]-phenoxy}-acetic acid, was bound to 10 μg SPA beads (PharmaciaAmersham) in a final volume of 50 μl by shaking. The resulting slurry was incubated for 1 h at RT and centrifuged for 2 min at 1300 g. […] Radioligand was added and the reaction incubated at RT for 1 h and scintillation proximity counting performed in the presence of test compounds was determined. All binding assays were performed in 96 well plates and the amount of bound ligand was measured on a Packard TopCount using OptiPlates (Packard). […]

[2] = target: T2, PPARγ (Mus musculus, UniProt P37238); experiment: PPARγ radioligand binding assay (scintillation proximity, GST-PPARγ-LBD); conditions: GST-PPARγ-LBD fusion protein, SPA radioligand binding
T2 construct: PPARγ (aa 174 to 476); made in house; host or cells: E. coli BL21 (pLysS)
T2 sequence (P37238 204-505): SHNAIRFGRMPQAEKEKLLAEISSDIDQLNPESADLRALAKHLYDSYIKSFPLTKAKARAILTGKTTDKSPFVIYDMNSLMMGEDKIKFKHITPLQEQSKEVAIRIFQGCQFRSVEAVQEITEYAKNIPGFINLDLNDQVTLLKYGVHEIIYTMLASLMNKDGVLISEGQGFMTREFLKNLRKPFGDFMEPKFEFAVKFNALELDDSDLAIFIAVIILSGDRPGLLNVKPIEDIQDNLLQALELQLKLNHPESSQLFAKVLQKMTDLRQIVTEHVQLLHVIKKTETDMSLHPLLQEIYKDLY
Excerpt: as §1, §2, §3, §4
(§5) PPARγ receptor binding was assayed in TKE50 (50 mM Tris-HCl, pH 8, 50 mM KCl, 2 mM EDTA, 0.1 mg/ml fatty acid-free BSA and 10 mM DTT). For each 96 well reaction an 140 ng equivalent of GST-PPARγ-LBD fusion protein was bound to 10 μg SPA beads (PharmaciaAmersham) in a final volume of 50 ul by shaking. The resulting slurry was incubated for 1 h at RT and centrifuged for 2 min at 1300 g. The supernatant containing unbound protein was removed and the semidry pellet containing the receptor-coated beads was resolved in 50 ul of TKE. […] All binding assays were performed in 96 well plates and the amount of bound ligand measured on a Packard TopCount using OptiPlates (Packard). Nonspecific binding was determined in the presence of 10^−4 M unlabelled compound. […]

[3] = target: T3, PPARα (Homo sapiens, UniProt Q07869); experiment: PPARα radioligand binding assay (scintillation proximity, GST-PPARα-LBD); conditions: GST-PPARα-LBD fusion protein, SPA radioligand binding
T3 construct: PPARα (aa 167 to 469); made in house; host or cells: E. coli BL21 (pLysS)
T3 sequence (Q07869 167-468 limits assumed): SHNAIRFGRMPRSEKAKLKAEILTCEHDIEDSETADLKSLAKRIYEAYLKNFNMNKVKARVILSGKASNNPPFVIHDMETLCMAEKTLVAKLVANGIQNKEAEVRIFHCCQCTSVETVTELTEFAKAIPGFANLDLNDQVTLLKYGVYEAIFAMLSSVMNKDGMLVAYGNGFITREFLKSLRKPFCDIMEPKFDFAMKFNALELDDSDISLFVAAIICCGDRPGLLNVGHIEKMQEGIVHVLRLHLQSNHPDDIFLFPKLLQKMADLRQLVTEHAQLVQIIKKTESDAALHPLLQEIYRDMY
Excerpt: as §1, §2, §3, §4
as §5, with “PPARα receptor” for “PPARγ receptor”, “of GST-PPARα-LBD” for “of GST-PPARγ-LBD”, “50 μl” for “50 ul”

Structure (SMILES) | IC50 [1] [nM] | IC50 [2] [µM] | IC50 [3] [nM] | melting point [°C]
Cc1nc(-c2ccc(C(F)(F)F)cc2)ccc1C(C)N(C)c1ccc(OCC(=O)O)c2ccccc12 (racemic) [Example 1, [rac]-[4-(Methyl-{1-[2-methyl-6-(4-trifluoromethyl-phenyl)-pyridin-3-yl]-ethyl}-amino)-naphthalen-1-yloxy]-acetic acid] | – | – | – | 157 to 158
CCC(c1ccc(-c2cccc(C(F)(F)F)c2)nc1C)N(C)c1ccc(OCC(=O)O)c2ccccc12 (racemic) [Example 2, [rac]-[4-(Methyl-{1-[2-methyl-6-(3-trifluoromethyl-phenyl)-pyridin-3-yl]-propyl}-amino)-naphthalen-1-yloxy]-acetic acid] | – | – | – | 76 to 78
CCCC(c1ccc(-c2cccc(C(F)(F)F)c2)nc1C)N(C)c1ccc(OCC(=O)O)c2ccccc12 (racemic) [Example 3, [rac]-[4-(Methyl-{1-[2-methyl-6-(3-trifluoromethyl-phenyl)-pyridin-3-yl]-butyl}-amino)-naphthalen-1-yloxy]-acetic acid] | 65 | > 10 | 3580 | –

Further lines, results first:

IC50 [1] [nM] | IC50 [2] [µM] | IC50 [3] [nM] | melting point [°C] | Structure (SMILES)
106 | > 10 | 716 | – | Cc1nc(-c2ccc(C(F)(F)F)cc2)ccc1COc1ccc(CCC(=O)O)c2c1CCCC2 [Example 5, 3-{4-[2-Methyl-6-(4-trifluoromethyl-phenyl)-pyridin-3-ylmethoxy]-5,6,7,8-tetrahydro-naphthalen-1-yl}-propionic acid]
295 | > 10 | 37 | – | COC(Cc1cc(OCCc2ccc(-c3ccc(C(F)(F)F)cc3)nc2C)c2ccccc2c1)C(=O)O (racemic) [Example 4, [rac]-2-Methoxy-3-(4-{2-[2-methyl-6-(4-trifluoromethyl-phenyl)-pyridin-3-yl]-ethoxy}-naphthalen-2-yl)-propionic acid]
